Measured values taken from patent publication US6046231A, “Use of 4'-bromoflavone in a cancer chemopreventative composition and method” (The Board of Trustees of the University of Illinois, priority 1999, dated 2000).
Entries after “also recorded” stand apart in the source; their conditions may differ. Where two headings read alike, the source gives them in different places.

Legend:
[1] = test system: H4IIE rat hepatoma cells; experiment: Toxicity in H4IIE rat hepatoma cells; type: cell-based
[2] = test system: QR ARE-CAT construct, HepG2 cells; experiment: CAT expression in HepG2 cells transfected with QR ARE-CAT; type: cell-based, human cells; rat QR gene; details: 10 μM, 48 h; p<0.0001
Experimental: (§1) Transcient Transfection Gene Expression Assay. Cultured HepG2 human hepatoma cells were transfected with three plasmid constructs (PDTD-1697CAT, XRE-CAT, ARE-CAT) containing various portions of the 5'-region of the QR gene fused to the CAT gene using the calcium phosphate precipitation method (J. Sambrook et al., Molecular cloning: A Laboratory Handbook, Ed. Chris Nolan, CHS Laboratory Press, 1989). After 4 hours of transfection, the cells were treated with 10% glycerol for 3 minutes and rinsed with PBS and switched to MEM, containing 100 units/ml penicillin G sodium, 100 units/ml streptomycin sulfate, nonessential amino acids, and 1 mM sodium pyruvate (Life Technologies Inc.) supplemented with 10% fetal bovine serum for 12-16 hours recovery. Then, test agents were added to the cells. After 48 hours of treatment with the test agents, cells were harvested with lysis buffer (Boehringer Mannheim Biochemical) and CAT protein expressions were assessed using a CAT ELISA kit (Boehringer Mannheim Biochemical). CAT enzyme expression was normalized for the protein content of each sample. All data were expressed as mean +/- SD. Means were compared using Student's t test with n=4.
(§2) This was further investigated in transient transfection experiments wherein human hepatoma cells were transfected with DNA constructs containing various portions of the 5' upstream promoter region of the QR gene linked to the CAT reporter gene by using the calcium phosphate precipitation method. Construct pDTD-1097CAT contains elements of the rat QR gene connected to the CAT construct gene. […]
(§3) In particular, FIG. 1 illustrates quantitation of CAT expression in HepG2 cells transfected with QR-CAT constructs. […] CAT expression (ng CAT/mg protein) was determined using a CAT ELISA, and the ratio of CAT expression between treated and control cells was calculated (ratio=treated/control).

[3] = test system: pDTD-1097CAT construct (QR gene 5'-region), HepG2 cells; experiment: CAT expression in HepG2 cells transfected with pDTD-1097CAT; type: cell-based, human cells; rat QR gene; details: 10 μM, 48 h; p<0.0001
Experimental: as §1, with “CAT enzyme expression was normalized for the protein content of each sample.” left out, “Means were compared using Student's t test with n=4.” left out
as §3

[4] = test system: quinone reductase (QR), Hepa 1c1c7 cells; details: reported comparator value; cited from earlier work
[5] = test system: GST Yb (μ class); experiment: Western blot of GST Yb (μ-type) expression in H4IIE cells; type: cell-based, rat
Experimental: (§4) Western Blot Analysis Glutathione S-transferase Expression. Cultured H4IIE rat hepatoma cells were treated with test agent with various concentrations or various time points. […] Cells were harvested using SDS lysis buffer (20 mM Tris-Cl, pH 6.8, containing 0.4% SDS (w/v), 4% glycerol, 0.24 M β-mercaptoethanol, and 0.5% bromphenol) and the lysates were boiled for 5 minutes, then stored at -20° C. An aliquot of lysate was used for protein determination using a bicichoninic acid protein assay kit with BSA as a standard. Equivalent amounts of protein were electrophoresed by SDS-PAGE on precast 12.5% Tris-glycine acrylamide gels (Novex, San Diego, Calif.), then transferred to polyvinylidene difluoride (PDVF) membranes. Nonspecific binding sites were blocked with 10% nonfat dry milk and blotting was performed with goat polyclonal antirat GSTYa (α class) IgG or antirat, GSTYb (μ class) IgG and analyzed by alkaline phosphatase-conjugated antigoat IgG secondary antibody (Oxford Biomed Research, Inc.) and quantified using an AP 20 Alkaline Phosphatase Kit detection system (Oxford Biomed Research, Inc.).
(§5) Induction of Expression of Glutathione S-transferase Ya (α-type) and Yb (μ-type) in Cell Cultures. […] To date, the superfamily of mammalian cytosolic GST isozymes has been defined genetically to consist of four classes; α, μ, π, and θ, which differ in tissue-specificexpression and distribution, as well as substrate specificity. […] Cultured H4IIE cells were treated either with 10 μM of 4'-BF (FIG. 7B) or sulforaphane for 0, 2, 4, 8, 16, 24, and 48 hours for a time-dependent study, or with 0.16, 0.8, 4, 10, 20, and 50 μM of 4'-BF (FIG. 7A) or sulforaphane for 24 hr for a dose-dependent study (FIG. 7A). The expressions of two major detoxification isoforms of GSTs (GST Ya: α-type, and GST Yb: μ-type) mediated by 4'-BF or sulforaphane were investigated in H4EII rat hepatoma cells using Western blotting technique.

[6] = test system: quinone reductase (QR), Hepa 1c1c7 cells; experiment: Quinone reductase (QR) induction in Hepa 1c1c7 cells; type: cell-based, murine
Excerpt: This test was used because the specific activity of QR rises concomitantly with other phase II enzymes in many animal tissues in response to various chemopreventive agents. The study included natural and synthetic B-ring substituted flavones, as well as biosynthetic precursor chalcones and flavanones.
Determination of Quinone Reductase Activity in Cell Cultures. To determine the potency of inducers, Hepa 1c1c7 murine hepatoma cells as described in the Gerhauser publication were placed in 96-well plates at a density of 1×10^4 cells/ml in 200 μl of medium. After a preincubation period of 24 hr, the media were decanted and 190 μl fresh media were added to each well. Ten (10) μl test agents dissolved in 10% DMSO (final concentration of DMSO is 0.5%) with a serial 2-fold dilutions were introduced to each well, and the plates were incubated for an additional 48 hours. Specific QR activity was determined by measuring the NADPH-dependent menadiol-mediated reduction of 3-(4, 5-dimethylthiazo-2-yl)-2,5-diphenyltetrazolium bromide to blue formazan formed per mg protein per minute. Protein was determined in an identical set of test plates by staining with crystal violet. Hepa 1c1c7 cells retain many characteristics of normal issues, particularly the capacity for carcinogen activation and metabolism. They are amenable to precise control of environmental, nutritional, and hormonal factors. […] Induction of QR activity was calculated by comparing the QR specific activity of agent-treated cells with that of solvent-treated cells, and a plot of ratio was generated. CD represents the concentration required to double QR induction. Chemopreventive index (CI) is an indexing value generated by comparing CD with IC50 (concentration for 50% inhibition of cell viability) values.
Induction of Quinone Reductase in Hepa 1c1c7 Cells. […] Modification of the B-ring of chalcones, flavanones, and flavones was hypothesized to induce torsion of the B-ring, and, therefor, simulate out-of-plane distortions characteristic of polycyclic aromatic hydrocarbons, such as DMBA. Induction of QR activity was calculated by comparing the QR specific activity of agent-treated cells with the QR specific activity of solvent-treated cells, and a plot of ratios was generated. CD represents the concentration required for a double fold of induction. CI (Chemopreventive Index) is a value obtained by comparing CD with IC50 (concentration for 50% inhibition of cell viability in […]).

[7] = test system: GST Ya (α class); experiment: Western blot of GST Ya (α-type) expression in H4IIE cells; type: cell-based, rat
Experimental: as §4, §5

[8] = test system: QR XRE-CAT construct, HepG2 cells; experiment: CAT expression in HepG2 cells transfected with QR XRE-CAT; type: cell-based, human cells; rat QR gene; details: 10 μM, 48 h
Experimental: as §1, §2, §3

[9] = test system: Hepa 1c1c7 cells; experiment: Hepa 1c1c7 cell viability (cytotoxicity); type: cell-based, murine; details: Mus musculus, Hepa-1c1c7, read-out: IC50, concentration for 50% inhibition of cell viability
[10] = test system: Hepa 1c1c7 cells; details: comparator value; read-out: IC50 (toxicity), comparison value; cited from earlier work

SMILES	toxicity in H4IIE cells [1]	CAT expression, QR ARE-CAT [2]	CAT expression, pDTD-1097CAT [3]	CD, comparison value [4] [µM]	maximum induction time, GST Yb ([5]; 10 μM, 0-48 h) [h]	maximum induction concentration, GST Yb ([5]; 0.16-50 μM, 24 h) [µM]	GST Yb (μ) induction ([5]; H4IIE cells)	CI, chemoprevention index (IC50/CD) ([6]; IC50/CD, 2880 min)	EC (2-fold) ([6]; Mus musculus, Hepa-1c1c7, 48 h, Hepa 1c1c7 cells, 48 h, read-out: CD, concentration to double the specific activity of QR) [µM]	maximum induction time, GST Ya ([7]; 10 μM, 0-48 h) [h]	maximum induction concentration, GST Ya ([7]; 0.16-50 μM, 24 h) [µM]	GST Ya (α) induction ([7]; H4IIE cells)	CAT expression, QR XRE-CAT [8]	IC50 [9] [µM]	IC50 [10] [µM]
C[S+]([O-])CCCCN=C=S (stereo not drawn) [Sulforaphane, sulforaphane, reference compound]	a declined induction for sulforaphane was observed at a concentration higher than 10 μM due to the toxic effects	significantly (p<0.0001) induced; also recorded: selectively interacted with the ARE	significantly (p<0.0001) induced	0.23	16 to 24	4 to 10	Time, dose-dependent induction	26	0.43	16 to 24	4 to 10	Time, dose-dependent induction	not observed	11	–
O=c1cc(-c2ccccc2)oc2ccc3ccccc3c12 [β-naphthoflavone]	–	significantly (P<0.0001, students t test with n=4) induced	–	0.02 to 0.04	–	–	–	–	–	–	–	–	significantly (P<0.0001, students t test with n=4) induced	–	8
